Assay results from US5135943A, “1H-imidazole derivative compounds and pharmaceutical compositions containing the same” (priority 1984, dated 1992).
Values after ≈ are worked out from the molar mass of the structure shown. Read-outs that look alike come from different tables or passages of the source.

Experiments:
[1] = system: C. albicans 32; test: MIC, comparative in vitro testing against Martin compounds; type: cell-based; conditions: YNB medium
Experimental: (§1) Minimum Inhibitory Concentrations (MICS) of Sertaconazole were also measured in comparison to four of the compounds described in the Martin Patent, including a compound, referred to herein as Martin Compound 1, which has the same structure as Sertaconazole, expect that the sulfur in the benzothiophene ring is replaced by an oxygen.
(§2) The results of comparative in vitro testing of Sertaconazole and these four Martin compounds are shown in the following Table II against 16 microorganisms. The reading time is the time interval from the time of inoculation to the time of measurement.

[2] = system: C. pseudotropicalis 21; test: as above; type: cell-based; conditions: Sabouraud medium
Experimental: as §1, §2

[3] = system: C. krusei 24; test: as above; type: cell-based
Experimental: as §1, §2

[4] = system: C. stellatoidea 36232; test: as above; type: cell-based
Experimental: as §1, §2

[5] = system: C. parapsilosis 19; test: as above; type: cell-based
Experimental: as §1, §2

[6] = system: C. guillermondii; test: as above; type: cell-based
Experimental: as §1, §2

[7] = system: C. albicans 15; test: as above; type: cell-based; conditions: Casitone medium
Experimental: as §1, §2

[8] = system: C. albicans ATCC E-10231; test: as above; type: cell-based; conditions: Casitone medium
Experimental: as §1, §2

[9] = system: C. albicans 31; test: as above; type: cell-based; conditions: YNB medium
Experimental: as §1, §2

[10] = system: C. albicans 14; test: as above; type: cell-based; conditions: Casitone medium
Experimental: as §1, §2

[11] = system: C. tropicalis 25; test: as above; type: cell-based; conditions: YNB medium
Experimental: as §1, §2

[12] = Acute toxicity (LD50) in rat, three administration routes; conditions: in vivo, males
Experimental: Toxicity of Sertaconazole, Microazole and Martin's compounds 1, 2 and 3, as shown below, has been tested by standard methods. Both acute toxicity, subacute toxicity and chronic toxicity were studied
Oral, intraperitoneal and subcutaneous acute toxicity of sertaconazole and miconazole have been investigated. LD50 in mouse and rat, male and female, were measured.

[13] = system: 16 microorganisms; test: Geometric mean of all MIC measurements, comparative in vitro testing; type: cell-based; conditions: for MIC: read-out: Geometric means of MIC
Experimental: as §1, §2

[14] = system: Trichophyton rubrum; test: Randomized double blind clinical trials, Trichophyton rubrum infection; type: in vivo, human; conditions: 2 % cream (nitrate salts), 28 days treatment
Experimental: Human clinical trials were performed with Sertaconazole nitrate and Miconazole nitrate acid addition salts. Randomized double blind trials were carried out with 502 patients suffering from cutaneous mycosis as confirmed by microscopic examination and microbiological culture. 247 patients were treated with 2 % Sertaconazole cream and the remaining 255 patients were treated with 2 % Miconazole cream. All patients received scheduled treatment for 28 days and were followed up for an additional 28 days for possible relapses.

[15] = system: Candida albicans; test: Vaginal infection by Candida albicans in female mice; type: in vivo; conditions: seven days after infection
Source text: Besides the above in vivo experiments vaginal infection by Candida albicans was studied in female mice. Standard methods were used. […] Similar results were found in experiments where repeated dosages of active compound were used after infection. These in vivo results confirmed the surprising speed of action of Sertaconazole in comparison to the prior art compounds.

[16] = system: Dermatophytes, Others; test: MIC by two-fold dilution, other dermatophytes; type: cell-based; conditions: 3 strains; read-out: Minimum Inhibitory Concentration
Experimental: (§3) Minimum Inhibitory Concentrations (MICS) of Sertaconazole and Miconazole against 107 yeasts, 47 dermatophytes and 4 fungi were determined by a two-fold dilution method.

[17] = system: Torulopsis glabrata; test: MIC by two-fold dilution, Torulopsis glabrata; type: cell-based; conditions: Nakaseomyces glabratus; 10 strains; read-out: Minimum Inhibitory Concentration
Experimental: as §3

## Clc1ccc(C(Cn2ccnc2)OCc2csc3c(Cl)cccc23)c(Cl)c1 (stereo not shown) [Sertaconazole]
[1]; Candida albicans, 32, reading time 48 h, SZ vs M2, read-out: MIC
  MIC: 4 µg/mL (≈ 9.14 µM)
[1]; Candida albicans, 32, reading time 60 h, SZ vs M1, read-out: MIC
  MIC: 8 µg/mL (≈ 18.3 µM)
[1]; reading time 48 h, SZ vs M3
  MIC: 4 µg/mL (≈ 9.14 µM)
[1]; reading time 48 h, SZ vs M4
  MIC: 4 µg/mL (≈ 9.14 µM)
[2]; Kluyveromyces marxianus, 21, reading time 48 h, SZ vs M2, read-out: MIC
  MIC: 0.03 µg/mL (≈ 0.0685 µM)
[2]; Kluyveromyces marxianus, 21, reading time 60 h, SZ vs M1, read-out: MIC
  MIC: 0.03 µg/mL (≈ 0.0685 µM)
[2]; reading time 48 h, SZ vs M3
  MIC: 0.03 µg/mL (≈ 0.0685 µM)
[2]; reading time 48 h, SZ vs M4
  MIC: 0.03 µg/mL (≈ 0.0685 µM)
[3]; Casitone medium, reading time 48 h, SZ vs M4
  MIC: 0.125 µg/mL (≈ 0.286 µM)
[3]; Pichia kudriavzevii, 24, 48 h
  MIC: 0.125 µg/mL (≈ 0.286 µM)
[3]; Pichia kudriavzevii, 24, 48 h, Casitone medium, reading time 48 h, SZ vs M2, read-out: MIC
  MIC: 0.25 µg/mL (≈ 0.571 µM)
[3]; Pichia kudriavzevii, 24, 48 h, YNB medium, reading time 48 h, SZ vs M2, read-out: MIC
  MIC: 0.25 µg/mL (≈ 0.571 µM)
[3]; Pichia kudriavzevii, 24, 48 h, YNB medium, reading time 48 h, SZ vs M3, read-out: MIC
  MIC: 0.25 µg/mL (≈ 0.571 µM)
[3]; Pichia kudriavzevii, 24, 48 h, YNB medium, reading time 48 h, SZ vs M4, read-out: MIC
  MIC: 0.25 µg/mL (≈ 0.571 µM)
[3]; Pichia kudriavzevii, 24, 60 h, Casitone medium, reading time 60 h, SZ vs M1, read-out: MIC
  MIC: 1 µg/mL (≈ 2.28 µM)
[3]; Pichia kudriavzevii, 24, 60 h, YNB medium, reading time 60 h, SZ vs M1, read-out: MIC
  MIC: 0.25 µg/mL (≈ 0.571 µM)
[4]; Candida albicans, 36232, 48 h, Casitone medium, reading time 48 h, SZ vs M2
  MIC: 0.06 µg/mL (≈ 0.137 µM)
[4]; Candida albicans, 36232, 48 h, Casitone medium, reading time 48 h, SZ vs M3
  MIC: 0.06 µg/mL (≈ 0.137 µM)
[4]; Candida albicans, 36232, 48 h, Casitone medium, reading time 48 h, SZ vs M4
  MIC: 0.06 µg/mL (≈ 0.137 µM)
[4]; Candida albicans, 36232, 48 h, Sabouraud medium, reading time 48 h, SZ vs M2
  MIC: 0.25 µg/mL (≈ 0.571 µM)
[4]; Candida albicans, 36232, 48 h, Sabouraud medium, reading time 48 h, SZ vs M3
  MIC: 0.5 µg/mL (≈ 1.14 µM)
[4]; Candida albicans, 36232, 48 h, Sabouraud medium, reading time 48 h, SZ vs M4
  MIC: 0.5 µg/mL (≈ 1.14 µM)
[4]; Candida albicans, 36232, 48 h, YNB medium, reading time 48 h, SZ vs M2
  MIC: 1 µg/mL (≈ 2.28 µM)
[4]; Candida albicans, 36232, 48 h, YNB medium, reading time 48 h, SZ vs M3
  MIC: 0.5 µg/mL (≈ 1.14 µM)
[4]; Candida albicans, 36232, 48 h, YNB medium, reading time 48 h, SZ vs M4
  MIC: 0.5 µg/mL (≈ 1.14 µM)
[4]; Candida albicans, 36232, 60 h, Casitone medium, reading time 60 h, SZ vs M1
  MIC: 0.25 µg/mL (≈ 0.571 µM)
[4]; Candida albicans, 36232, 60 h, Sabouraud medium, reading time 60 h, SZ vs M1
  MIC: 1 µg/mL (≈ 2.28 µM)
[4]; Candida albicans, 36232, 60 h, YNB medium, reading time 60 h, SZ vs M1
  MIC: 4 µg/mL (≈ 9.14 µM)
[5]; 19, 48 h, Sabouraud medium, reading time 48 h, SZ vs M2
  MIC: 0.25 µg/mL (≈ 0.571 µM)
[5]; 19, 48 h, Sabouraud medium, reading time 48 h, SZ vs M3
  MIC: 0.25 µg/mL (≈ 0.571 µM)
[5]; 19, 48 h, Sabouraud medium, reading time 48 h, SZ vs M4
  MIC: 0.25 µg/mL (≈ 0.571 µM)
[5]; 19, 48 h, YNB medium, reading time 48 h, SZ vs M2
  MIC: 0.25 µg/mL (≈ 0.571 µM)
[5]; 19, 48 h, YNB medium, reading time 48 h, SZ vs M3
  MIC: 0.5 µg/mL (≈ 1.14 µM)
[5]; 19, 48 h, YNB medium, reading time 48 h, SZ vs M4
  MIC: 0.5 µg/mL (≈ 1.14 µM)
[5]; 19, 60 h, Sabouraud medium, reading time 60 h, SZ vs M1
  MIC: 1 µg/mL (≈ 2.28 µM)
[5]; 19, 60 h, YNB medium, reading time 60 h, SZ vs M1
  MIC: 0.5 µg/mL (≈ 1.14 µM)
[6]; 48 h
  MIC: 0.125 µg/mL (≈ 0.286 µM)
[6]; 48 h, Casitone medium, reading time 48 h, SZ vs M2, read-out: MIC
  MIC: 0.25 µg/mL (≈ 0.571 µM)
[6]; 48 h, Casitone medium, reading time 48 h, SZ vs M3, read-out: MIC
  MIC: 0.25 µg/mL (≈ 0.571 µM)
[6]; 48 h, Casitone medium, reading time 48 h, SZ vs M4, read-out: MIC
  MIC: 0.25 µg/mL (≈ 0.571 µM)
[6]; 48 h, YNB medium, reading time 48 h, SZ vs M2, read-out: MIC
  MIC: 0.25 µg/mL (≈ 0.571 µM)
[6]; 60 h, Casitone medium, reading time 60 h, SZ vs M1, read-out: MIC
  MIC: 0.5 µg/mL (≈ 1.14 µM)
[6]; 60 h, YNB medium, reading time 60 h, SZ vs M1, read-out: MIC
  MIC: 0.25 µg/mL (≈ 0.571 µM)
[6]; YNB medium, reading time 48 h, SZ vs M4
  MIC: 0.125 µg/mL (≈ 0.286 µM)
[7]; Candida albicans, 15, 48 h, reading time 48 h, SZ vs M2
  MIC: 0.06 µg/mL (≈ 0.137 µM)
[7]; Candida albicans, 15, 48 h, reading time 48 h, SZ vs M3
  MIC: 0.03 µg/mL (≈ 0.0685 µM)
[7]; Candida albicans, 15, 48 h, reading time 48 h, SZ vs M4
  MIC: 0.03 µg/mL (≈ 0.0685 µM)
[7]; Candida albicans, 15, 60 h, reading time 60 h, SZ vs M1
  MIC: 0.5 µg/mL (≈ 1.14 µM)
[8]; Candida albicans, ATCCE10231, reading time 48 h, SZ vs M2, read-out: MIC
  MIC: 0.5 µg/mL (≈ 1.14 µM)
[8]; Candida albicans, ATCCE10231, reading time 60 h, SZ vs M1, read-out: MIC
  MIC: 1 µg/mL (≈ 2.28 µM)
[8]; reading time 48 h, SZ vs M3
  MIC: 0.5 µg/mL (≈ 1.14 µM)
[8]; reading time 48 h, SZ vs M4
  MIC: 0.5 µg/mL (≈ 1.14 µM)
[9]; Candida albicans, 31, reading time 48 h, SZ vs M2, read-out: MIC
  MIC: 4 µg/mL (≈ 9.14 µM)
[9]; Candida albicans, 31, reading time 60 h, SZ vs M1, read-out: MIC
  MIC: 8 µg/mL (≈ 18.3 µM)
[9]; reading time 48 h, SZ vs M3
  MIC: 4 µg/mL (≈ 9.14 µM)
[9]; reading time 48 h, SZ vs M4
  MIC: 4 µg/mL (≈ 9.14 µM)
[10]; Candida albicans, 14, 48 h, reading time 48 h, SZ vs M2
  MIC: 0.25 µg/mL (≈ 0.571 µM)
[10]; Candida albicans, 14, 48 h, reading time 48 h, SZ vs M3
  MIC: 0.5 µg/mL (≈ 1.14 µM)
[10]; Candida albicans, 14, 48 h, reading time 48 h, SZ vs M4
  MIC: 0.5 µg/mL (≈ 1.14 µM)
[10]; Candida albicans, 14, 60 h, reading time 60 h, SZ vs M1
  MIC: 1 µg/mL (≈ 2.28 µM)
[11]; Candida tropicalis, 25, 48 h, reading time 48 h, SZ vs M2
  MIC: 8 µg/mL (≈ 18.3 µM)
[11]; Candida tropicalis, 25, 48 h, reading time 48 h, SZ vs M3
  MIC: 4 µg/mL (≈ 9.14 µM)
[11]; Candida tropicalis, 25, 48 h, reading time 48 h, SZ vs M4
  MIC: 4 µg/mL (≈ 9.14 µM)
[11]; Candida tropicalis, 25, 60 h, reading time 60 h, SZ vs M1
  MIC: 8 µg/mL (≈ 18.3 µM)
[12]; ip, intraperitoneal
  LD50: > 8000 mg/kg
[12]; oral
  LD50: > 8000 mg/kg
[12]; sc, subcutaneous
  LD50: > 8000 mg/kg
[13]; 48 h, SZ vs M2, reading time 48 h
  MIC: 0.366 µg/mL (≈ 0.836 µM)
[13]; 48 h, SZ vs M3, reading time 48 h
  MIC: 0.336 µg/mL (≈ 0.768 µM)
[13]; 48 h, SZ vs M4, reading time 48 h
  MIC: 0.336 µg/mL (≈ 0.768 µM)
[13]; 60 h, SZ vs M1, reading time 60 h
  MIC: 0.876 µg/mL (≈ 2 µM)
[13]; relative to Martin Compound 1
  Increase of Sertaconazole activity: 24%
[13]; relative to Martin Compound 2
  Increase of Sertaconazole activity: 54%
[13]; relative to Martin Compound 3
  Increase of Sertaconazole activity: 16%
[13]; relative to Martin Compound 4
  Increase of Sertaconazole activity: 54%
[14]
  effectiveness against Trichophyton rubrum: 100%
[15]
  animals healed: 75%
[16]
  MIC: 2.5 µg/mL (≈ 5.71 µM)
[17]
  MIC: 1.5 µg/mL (≈ 3.43 µM)
